Laboratory results as given in ChEMBL document CHEMBL3085743, “6-(1-Benzyl-1H-pyrrol-2-yl)-2,4-dioxo-5-hexenoic acids as dual inhibitors of recombinant HIV-1 integrase and ribonuclease H, synthesized by a parallel synthesis approach” (J Med Chem, 2013).

How the values were obtained:
[1] = target: Human immunodeficiency virus type 1 integrase (Human immunodeficiency virus 1, UniProt Q7ZJM1)
Description: Inhibition of strand transfer activity of recombinant HIV1 integrase using 5'-end-labeled 21-mer double-stranded DNA as substrate after 60 mins by electrochemiluminescent plate-based assay

[2] = target: Human immunodeficiency virus type 1 reverse transcriptase (Human immunodeficiency virus 1, UniProt Q72547)
Description: Inhibition of RNase H activity of recombinant HIV1 reverse transcriptase using poly(dC)-[3H]poly(rG) as substrate

Chain of Human immunodeficiency virus type 1 integrase (Q7ZJM1 whole entry): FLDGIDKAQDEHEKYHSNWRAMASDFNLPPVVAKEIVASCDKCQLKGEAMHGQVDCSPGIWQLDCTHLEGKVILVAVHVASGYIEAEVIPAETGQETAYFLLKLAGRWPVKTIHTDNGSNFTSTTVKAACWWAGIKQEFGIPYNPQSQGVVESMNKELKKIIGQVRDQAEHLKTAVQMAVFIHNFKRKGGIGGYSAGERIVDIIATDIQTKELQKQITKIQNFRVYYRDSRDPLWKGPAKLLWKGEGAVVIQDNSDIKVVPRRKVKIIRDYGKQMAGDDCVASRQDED

| Compound | IC50 [1] [µM] | IC50 [2] [µM] |
| --- | --- | --- |
| CCOc1ccccc1Cn1cccc1/C=C/C(=O)CC(=O)C(=O)O | 0.31 | 64 |
| N#Cc1ccc(Cn2cccc2/C=C/C(=O)CC(=O)C(=O)O)cc1 | 1.7 | 6 |
| Cc1ccc(Cn2cccc2/C=C/C(=O)CC(=O)C(=O)O)cc1 |  | 17 |
| CCOC(=O)C(=O)CC(=O)/C=C/c1cccn1Cc1ccc(F)cc1F | 1 | 19 |
| O=C(/C=C/c1cccn1Cc1cc(Cl)cc(Cl)c1)CC(=O)C(=O)O | 0.97 | 30 |
| CCOC(=O)C(=O)CC(=O)/C=C/c1cccn1Cc1ccc(Cl)cc1Cl | > 111 | 9 |
| CCOC(=O)C(=O)CC(=O)/C=C/c1cccn1Cc1cccc(C)c1 | 8 | 9.6 |
| CCOC(=O)C(=O)CC(=O)/C=C/c1cccn1Cc1ccc(OC)cc1 |  | 6.7 |
| O=C(/C=C/c1cccn1Cc1ccc(Cl)cc1Cl)CC(=O)C(=O)O | 4.9 | 7 |
| O=C(/C=C/c1cccn1Cc1ccccc1)CC(=O)C(=O)O |  | 15 |
| CCOC(=O)C(=O)CC(=O)/C=C/c1cccn1Cc1cc(C)cc(C)c1 | 19 | 6 |
| CCOC(=O)C(=O)CC(=O)/C=C/c1cccn1Cc1cc(Cl)cc(Cl)c1 | 8 |  |
| O=C(/C=C/c1cccn1Cc1cccc(F)c1)CC(=O)C(=O)O | 0.92 | 14 |
| O=C(/C=C/c1cccn1Cc1c(F)cccc1F)CC(=O)C(=O)O | 0.15 | 50 |
| CCOC(=O)C(=O)CC(=O)/C=C/c1cccn1Cc1cccc(F)c1 | 11 | 9 |
| O=C(/C=C/c1cccn1Cc1cccc(Cl)c1)CC(=O)C(=O)O | 0.31 | 9 |
| COc1ccccc1Cn1cccc1/C=C/C(=O)CC(=O)C(=O)O | 0.53 | 16 |
| O=C(/C=C/c1cccn1Cc1ccc(F)cc1F)CC(=O)C(=O)O | 0.042 | 10 |
| CCOC(=O)C(=O)CC(=O)/C=C/c1cccn1Cc1ccc(Cl)cc1 |  | 8 |
| CCOC(=O)C(=O)CC(=O)/C=C/c1cccn1Cc1cc(F)cc(F)c1 | 0.49 | 5 |
| COc1ccc(Cn2cccc2/C=C/C(=O)CC(=O)C(=O)O)cc1 |  | 3 |
| CCOC(=O)C(=O)CC(=O)/C=C/c1cccn1Cc1cccc(C#N)c1 | 13 | 5 |
| CCOC(=O)C(=O)CC(=O)/C=C/c1cccn1Cc1cccc(F)c1F | 0.53 | 8 |
| CCOC(=O)C(=O)CC(=O)/C=C/c1cccn1Cc1c(Cl)cccc1Cl | 1.7 | 22 |

| Compound | IC50 [1] [µM] | IC50 [2] [µM] |
| --- | --- | --- |
| O=C(/C=C/c1cccn1Cc1c(Cl)cccc1Cl)CC(=O)C(=O)O | 0.17 | 28 |
| N#Cc1cccc(Cn2cccc2/C=C/C(=O)CC(=O)C(=O)O)c1 | 0.75 | 5 |
| Cc1cccc(Cn2cccc2/C=C/C(=O)CC(=O)C(=O)O)c1 | 1.3 | 4.6 |
| O=C(/C=C/c1cccn1Cc1ccc(Cl)cc1)CC(=O)C(=O)O | 4.1 | 5 |
| CCOC(=O)C(=O)CC(=O)/C=C/c1cccn1Cc1ccc(C)cc1 |  | 7.3 |
| O=C(/C=C/c1cccn1Cc1ccc(F)c(F)c1)CC(=O)C(=O)O | 1.6 | 86 |
| CCOC(=O)C(=O)CC(=O)/C=C/c1cccn1Cc1c(F)cccc1F | 4 | 19 |
| CCOC(=O)C(=O)CC(=O)/C=C/c1cccn1Cc1ccccc1F | 1 | 6.3 |
| O=C(/C=C/c1cccn1Cc1ccc(F)cc1)CC(=O)C(=O)O | 0.026 | 2.5 |
| CCOC(=O)C(=O)CC(=O)/C=C/c1cccn1Cc1cc(F)ccc1F | 0.45 | 9 |
| N#Cc1ccccc1Cn1cccc1/C=C/C(=O)CC(=O)C(=O)O | 6 | 6 |
| O=C(/C=C/c1cccn1Cc1cc(F)ccc1F)CC(=O)C(=O)O | 0.052 | 5 |
| CCOC(=O)C(=O)CC(=O)/C=C/c1cccn1Cc1ccccc1C | 32 | 3 |
| CCOC(=O)C(=O)CC(=O)/C=C/c1cccn1Cc1ccc(C#N)cc1 | > 111 | 8 |
| CCOC(=O)C(=O)CC(=O)/C=C/c1cccn1Cc1ccccc1OC | 23 | > 100 |
| CCOC(=O)C(=O)CC(=O)/C=C/c1cccn1Cc1ccccc1OCC | 12 | > 100 |
| O=C(/C=C/c1cccn1Cc1cc(F)cc(F)c1)CC(=O)C(=O)O | 1.2 | 14 |
| O=C(/C=C/c1cccn1Cc1ccccc1F)CC(=O)C(=O)O | 0.98 | 6.4 |
| Cc1cc(C)cc(Cn2cccc2/C=C/C(=O)CC(=O)C(=O)O)c1 | 1.6 | 16 |
| Cc1ccccc1Cn1cccc1/C=C/C(=O)CC(=O)C(=O)O | 0.17 | 26 |
| CCOC(=O)C(=O)CC(=O)/C=C/c1cccn1Cc1cccc(Cl)c1 | 6 | 19 |
| CCOC(=O)C(=O)CC(=O)/C=C/c1cccn1Cc1ccccc1C#N | 9 | 32 |
| O=C(/C=C/c1cccn1Cc1cccc(F)c1F)CC(=O)C(=O)O | 0.059 | 6 |
